Experimental data as given in patent US9925263B2, “Liquid pharmaceutical formulations for injection comprising procaine and uses thereof” (EAGLE BIOLOGICS, INC., priority 2013, dated 2018).
Where a name gives a salt, the structure may show the parent alone. Read-outs that look alike come from different tables or passages of the source.

Experiments:
[1] = test system: Crohn's and ulcerative colitis patients; settings: studies evaluating long-term clinical outcomes; cited from earlier work
biosimilar AVASTIN® = assay: Viscosity of aqueous solutions of biosimilar AVASTIN® with viscosity-lowering agents; type: physicochemical; settings: for Magnitude of viscosity-lowering effect (replacement of PB with CSAL): 0.25 M
Method: (§1) (unless otherwise indicated).
The protein was formulated to contain either 0.25 M phosphate buffer or 0.25 M CSAL.
(§2) Subsequently, the appropriate amount of viscosity-lowering agent was added to result in a final viscosity-lowering agent concentration of 0.15-0.35 M upon reconstitution.
The viscosity-lowering agent(s) were added in an amount sufficient to give concentration upon reconstitution as specified below. In cases of combinations of agents, the concentration of each component is 0.15 M. The protein solutions were then freeze-dried.

REMICADE® [2] = assay: Monomer content of […]® solutions by size exclusion chromatography; type: physicochemical; settings: 0.25M agent
Method: Biophysical properties of solutions of […]® formulated with 0.25 M CSAA were assessed over 90 days. Samples of […]® formulated with 0.25 M CSAA were prepared as described in Example 1 above.
(§3) Following reconstitution, the viscosity of each solution was measured using the microfluidic viscometer as described in previous examples. The solutions were then back-loaded into 1 mL BD insulin syringes with 27, 29, or 31 gauge fixed needles. The force required to extrude the concentrated […]® solutions was then measured using an Instron at a rate of displacement equivalent to a fluid flow rate of 3 mL/min. The expelled solution was collected from the syringe and analyzed by size-exclusion chromatography.

ARZERRA® = assay: Viscosity of aqueous solutions of ARZERRA® with viscosity-lowering agents; type: physicochemical; settings: 0.25M agent, 25° C., pH 7.0
Source text: as §1

REMICADE® [3] = assay: Syringe extrusion force of concentrated […]® solutions (Instron); type: physicochemical; settings: 1 mL BD insulin syringe, 3 mL/min, REMICADE 224-230 mg/mL, 0.25M agent
Method: as §3

biosimilar RITUXAN® = assay: Viscosity of aqueous solutions of biosimilar RITUXAN® with viscosity-lowering agents;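 further: absolute viscosity of aqueous antibody solutions determined by microfluidic viscometry (mVROC chip, 50 micron channel) at several flow rates after 5 min equilibration, mean of at least three readings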
Method: All viscosities of well-mixed aqueous mAb solutions were measured using either a mVROC microfluidic viscometer (RheoSense) or a DV2T cone and plate viscometer (Brookfield; “C & P”) after a 5 minute equilibration at 25° C. […] The mVROC viscometer was equipped with an “A” or “B” chip, each manufactured with a 50 micron channel. Typically, 0.10 mL of protein solution was back-loaded into a gastight microlab instrument syringe (Hamilton; 100 μL), affixed to the chip, and measured at multiple flow rates, approximately 20%, 40%, and 60% of the maximum pressure for each chip. […] An average absolute viscosity and standard deviation was then calculated from at least these three measurements. The C & P viscometer was equipped with a CPE40 or CPE52 spindle (cone angle of 0.8° and 3.0°, respectively) and 0.50 mL samples were measured at multiple shear rates between 2 and 400 s^−1. […] An extrapolated zero-shear viscosity was then determined from a plot of dynamic viscosity versus shear rate for the samples measured on a DV2T cone and plate viscometer. The extrapolated zero-shear viscosities reported are the average and standard deviation of at least three measurements.
(§4) Viscosities were measured using a RheoSense mVROC microfluidic viscometer equipped with an “A” or “B” chip.

bovine gamma globulin = assay: Viscosity of aqueous gamma globulin solutions on two viscometers; type: physicochemical; settings: without CSAL, or with 0.25M CSAL (label CSAL), 25° C., pH 7.0
Method: as §1
Aqueous solutions containing 220 mg/mL […]® and 0.25 M CSAA were prepared as described above Example 1. The viscosities at 25° C. and pH 7.0 are reported in Table 29 as extrapolated zero-shear viscosities from cone and plate viscometer measurements and as absolute viscosities measured with a microfluidic viscometer. […] An extrapolated zero-shear viscosity was determined from a plot of absolute viscosity versus shear rate.
In order to compare a broader range of viscosities and protein concentrations, aqueous solutions of a model antibody, bovine gamma globulin, were prepared with and without 0.25 M CSAL. The viscosities were measured as described above at protein concentrations ranging from 110 mg/mL to 310 mg/mL.

branded AVASTIN® = assay: Viscosity of aqueous solutions of branded AVASTIN®; type: physicochemical; settings: 205 ± 5 mg/mL mAb
Method: as §1, §2

biosimilar ERBITUX® = assay: Viscosity of aqueous solutions of biosimilar ERBITUX® with viscosity-lowering agents
REMICADE® [4] = assay: Viscosity of aqueous solutions of […]® with viscosity-lowering agents; type: physicochemical; settings: 25° C.
Method: as §1
An extrapolated zero-shear viscosity was determined from a plot of absolute viscosity versus shear rate.
as §3

SIMPONI ARIA® = settings: […] thiamine HCl vs […] phosphate buffer; FIG. 9
Method: (§5) All viscosities of well-mixed aqueous mAb solutions were measured using either a mVROC microfluidic viscometer (RheoSense) or a DV2T cone and plate viscometer (Brookfield; “C & P”) after a 5 minute equilibration at 25° C. […] The mVROC viscometer was equipped with an “A” or “B” chip, each manufactured with a 50 micron channel. Typically, 0.10 mL of protein solution was back-loaded into a gastight microlab instrument syringe (Hamilton; 100 μL), affixed to the chip, and measured at multiple flow rates, approximately 20%, 40%, and 60% of the maximum pressure for each chip. […] An average absolute viscosity and standard deviation was then calculated from at least these three measurements. The C & P viscometer was equipped with a CPE40 or CPE52 spindle (cone angle of 0.8° and 3.0°, respectively) and 0.50 mL samples were measured at multiple shear rates between 2 and 400 s^−1. Specifically, samples were measured for 30 seconds each at 22.58, 24.38, 26.25, 28.13, 30, 31.88, 45, 67.5, 90, 112.5, 135, 157.5, 180, 202.5, 247, 270, 292.5, 315, 337.5, 360, 382, 400 s^−1, starting at a shear rate that gave at least 10% torque, and continuing until instrument torque reached 100%. An extrapolated zero-shear viscosity was then determined from a plot of dynamic viscosity versus shear rate for the samples measured on a DV2T cone and plate viscometer. […]

TYSABRI® = assay: Viscosity of aqueous solutions of TYSABRI® with viscosity-lowering agents; type: physicochemical; settings: 244 mg/mL TYSABRI; excipient 0.1 M; 25° C.
Method: (§6) All viscosities of well-mixed aqueous mAb solutions were measured using either a mVROC microfluidic viscometer (RheoSense) or a DV2T cone and plate viscometer (Brookfield; “C & P”) after a 5 minute equilibration at 25° C. […] The mVROC viscometer was equipped with an “A” or “B” chip, each manufactured with a 50 micron channel. Typically, 0.10 mL of protein solution was back-loaded into a gastight microlab instrument syringe (Hamilton; 100 μL), affixed to the chip, and measured at multiple flow rates, approximately 20%, 40%, and 60% of the maximum pressure for each chip. […] An average absolute viscosity and standard deviation was then calculated from at least these three measurements. The C & P viscometer was equipped with a CPE40 or CPE52 spindle (cone angle of 0.8° and 3.0°, respectively) and 0.50 mL samples were measured at multiple shear rates between 2 and 400 s^−1. Specifically, samples were measured for 30 seconds each at 22.58, 24.38, 26.25, 28.13, 30, 31.88, 45, 67.5, 90, 112.5, 135, 157.5, 180, 202.5, 247, 270, 292.5, 315, 337.5, 360, 382, 400 s^−1, starting at a shear rate that gave at least 10% torque, and continuing until instrument torque reached 100%. An extrapolated zero-shear viscosity was then determined from a plot of dynamic viscosity versus shear rate for the samples measured on a DV2T cone and plate viscometer. The extrapolated zero-shear viscosities reported are the average and standard deviation of at least three measurements.
as §4
Subsequently, the aqueous drug product was purified, buffer exchanged, concentrated, dried, reconstituted, and analyzed as described in the same manner. Viscosities reported were measured on a RheoSense mVROC microfluidic viscometer.

HERCEPTIN® = assay: Viscosity of aqueous solutions of HERCEPTIN® with viscosity-lowering agents; type: physicochemical; settings: 25° C.
Method: All viscosities of well-mixed aqueous mAb solutions were measured using either a mVROC microfluidic viscometer (RheoSense) or a DV2T cone and plate viscometer (Brookfield; “C & P”) after a 5 minute equilibration at 25° C. (unless otherwise indicated). The mVROC viscometer was equipped with an “A” or “B” chip, each manufactured with a 50 micron channel. Typically, 0.10 mL of protein solution was back-loaded into a gastight microlab instrument syringe (Hamilton; 100 μL), affixed to the chip, and measured at multiple flow rates, approximately 20%, 40%, and 60% of the maximum pressure for each chip. […] An average absolute viscosity and standard deviation was then calculated from at least these three measurements. The C & P viscometer was equipped with a CPE40 or CPE52 spindle (cone angle of 0.8° and 3.0°, respectively) and 0.50 mL samples were measured at multiple shear rates between 2 and 400 s^−1. Specifically, samples were measured for 30 seconds each at 22.58, 24.38, 26.25, 28.13, 30, 31.88, 45, 67.5, 90, 112.5, 135, 157.5, 180, 202.5, 247, 270, 292.5, 315, 337.5, 360, 382, 400 s^−1, starting at a shear rate that gave at least 10% torque, and continuing until instrument torque reached 100%. An extrapolated zero-shear viscosity was then determined from a plot of dynamic viscosity versus shear rate for the samples measured on a DV2T cone and plate viscometer. The extrapolated zero-shear viscosities reported are the average and standard deviation of at least three measurements.
as §4
Viscosities reported were measured on a RheoSense mVROC microfluidic viscometer.

[5] = test system: biosimilar AVASTIN®, TYSABRI®, HERCEPTIN®, biosimilar ERBITUX®, REMICADE®; settings: thiamine HCl 0.1-0.25 M vs 0.25 M PB; Table 33
Method: as §5

[6] = 155 ± 5 mg/mL mAb, pH 7.0, 25° C., [CSAL] 0.25 M
[7] = 155 ± 5 mg/mL mAb, pH 7.0, 25° C., [CSAL] 0.38 M
[8] = 155 ± 5 mg/mL mAb, pH 7.0, 25° C., [CSAL] 0.50 M

Method for ENBREL®: as §6
ENBREL® obtained commercially and containing pharmaceutical excipients (Mannitol, Sucrose, Tromethamine) was purified, buffer exchanged, concentrated, dried, reconstituted, and analyzed as described in Example 1 above (using the extinction coefficient of 0.96 L/g·cm at 280 nm).

With “Vedolizumab: mAb being developed by Millennium Pharmaceuticals for ulcerative colitis and Crohn's disease” as the compound, how does the “Patients achieving clinical remission” value [1] read?
Its value is ~60%.

With “camphorsulfonic acid 1-(3-aminopropyl)-2-methyl-1H-imidazole [CSAAPMI]” as the compound, how does the Viscosity reduction (biosimilar AVASTIN®; ~230 mg/mL mAb, vs PB, Table 12) read?
The Viscosity reduction was “approximately 5 fold”.

And the “% Monomer” value (REMICADE® [2]; expelled through 27 gauge needle, REMICADE 224-230 mg/mL (per agent))?
The value was 99.1 ± 0.0%.

And the “% Monomer” value (REMICADE® [2]; expelled through 29 gauge needle, REMICADE 224-230 mg/mL (per agent))?
Its value is 99.0 ± 0.0%.

And the “% Monomer” value (REMICADE® [2]; expelled through 31 gauge needle, REMICADE 224-230 mg/mL (per agent))?
The value was 99.0 ± 0.0%.

And the “% Monomer” value (REMICADE® [2]; pre-syringe, REMICADE 220-230 mg/mL (per agent))?
The value was 99.2 ± 0.32%.

What about the Viscosity (ARZERRA®; 245 ± 4 mg/mL ARZERRA) of the same compound?
The Viscosity was 53.6 ± 0.6 cP.

What about the Viscosity (ARZERRA®; 274 ± 10 mg/mL ARZERRA) of the same compound?
Its Viscosity is 98.9 ± 0.7 cP.

What about the “Syringe Force” value (REMICADE® [3]; 27 gauge needle) of the same compound?
Its value is 21.9 N.

And the “Syringe Force” value (REMICADE® [3]; 29 gauge needle)?
The value was 30.4 N.

And the “Syringe Force” value (REMICADE® [3]; 31 gauge needle)?
The value was 38.4 N.

And the Viscosity (biosimilar RITUXAN®; 202 ± 2 mg/mL RITUXAN, 0.25M agent, 25° C., pH 7.0)?
Its Viscosity is 38.7 ± 0.7.

What about the Viscosity (biosimilar RITUXAN®; pH 7) of the same compound?
Its Viscosity is 78.6 ± 2.0.

What does the source list for camphorsulfonic acid lysine [CSAL]?
Magnitude of viscosity-lowering effect (replacement of PB with CSAL) (biosimilar AVASTIN®; 80 mg/mL mAb, 25° C., pH 7.0): 2.1 fold; Viscosity (biosimilar AVASTIN®; 210 mg/mL mAb, 0.25 M agent, 25° C., pH 7.0): 63.0 ± 1.8 cP; Fold decrease in viscosity in the presence of CSAL (biosimilar AVASTIN®; 0.25 M CSAL vs original excipients, 101 ± 5 mg/mL mAb, pH 7.0, 25° C.): 1.5 fold; Fold reduction in viscosity (biosimilar AVASTIN®; 0.25 M CSAL vs phosphate buffer, 205 ± 5 mg/mL mAb): 1.8 fold; Viscosity (biosimilar AVASTIN®; 101 ± 5 mg/mL mAb, pH 7.0, 25° C., formulation per label (CSAL 0.25M)): 4.03 ± 0.24 cP; Viscosity (biosimilar AVASTIN®; 200 ± 5 mg/mL mAb, pH 7.0, 25° C., [Salt] 0.25 M of anion, C & P viscometer): 54.9 ± 0.9 cP; Viscosity, Biosimilar AVASTIN ® (biosimilar AVASTIN®; 205 ± 5 mg/mL mAb, phosphate buffer or 0.25M CSAL, 25° C., pH 7.0): 54.9 ± 0.9 cP; Viscosity (biosimilar AVASTIN®; 228 ± 5 mg/mL mAb, agent 0.25 M, 25° C., pH 7.0): 113 ± 0 cP; Viscosity (biosimilar AVASTIN®; 230 ± 5 mg/mL mAb, pH 7.0, 0.25M, 20° C.): 152 ± 0 cP; Viscosity (biosimilar AVASTIN®; 230 ± 5 mg/mL mAb, pH 7.0, 0.25M, 25° C.): 107 ± 4 cP; Viscosity (biosimilar AVASTIN®; 230 ± 5 mg/mL mAb, pH 7.0, 0.25M, 30° C.): 95.5 ± 5.4 cP; Viscosity (biosimilar AVASTIN®; 230 ± 5 mg/mL mAb, pH 7.0, […], 20° C.): 157 ± 0 cP; Viscosity (biosimilar AVASTIN®; 230 ± 5 mg/mL mAb, pH 7.0, […], 25° C.): 113 ± 0 cP; Viscosity (biosimilar AVASTIN®; 230 ± 5 mg/mL mAb, pH 7.0, […], 30° C.): 91.7 ± 3.3 cP; Magnitude of viscosity-lowering effect (replacement of PB with CSAL) (biosimilar AVASTIN®; 230±5 mg/mL mAb, 25° C., pH 7.0): 3.7 fold; Viscosity (bovine gamma globulin; 170 mg/mL gamma globulin, C & P): 10.3 ± 1.0 cP; Viscosity (bovine gamma globulin; 170 mg/mL gamma globulin, microfluidic): 10.6 ± 0.1 cP; Viscosity (bovine gamma globulin; 260 mg/mL gamma globulin, C & P): 93.5 ± 1.2 cP; Viscosity (bovine gamma globulin; 260 mg/mL gamma globulin, microfluidic): 85.3 ± 0.3 cP; Viscosity (bovine gamma globulin; 310 mg/mL gamma globulin, C & P): 223 ± 1 cP; Viscosity (bovine gamma globulin; 310 mg/mL gamma globulin, microfluidic): 203 ± 2 cP; Fold reduction in viscosity (branded AVASTIN®; 0.25 M CSAL vs phosphate buffer): 3.3 fold; Viscosity, Branded AVASTIN ® (branded AVASTIN®; phosphate buffer or 0.25M CSAL, 25° C., pH 7.0): 46.7 ± 0.9 cP; Fold decrease in viscosity in the presence of CSAL (biosimilar ERBITUX®; 0.25 M CSAL vs original excipients, 80 ± 5 mg/mL mAb, pH 7.0, 25° C.): 2.7 fold; Viscosity (biosimilar ERBITUX®; 80 ± 5 mg/mL mAb, pH 7.0, 25° C., formulation per label (CSAL 0.25M)): 3.08 ± 0.18 cP; Magnitude of viscosity-lowering effect (replacement of PB with CSAL) (biosimilar ERBITUX®; 100±5 mg/mL mAb, 0.25 M, 25° C., pH 7.0): 1.1 fold; Fold viscosity reduction (compared to no CSAL present) (biosimilar ERBITUX®; 155 ± 5 mg/mL mAb, pH 7.0, 25° C., [CSAL] 0 M): 1 fold; Viscosity (biosimilar ERBITUX®; 155 ± 5 mg/mL mAb, pH 7.0, 25° C., [CSAL] 0 M (0.25 M phosphate buffer control)): 154 ± 0 cP; Fold viscosity reduction (compared to no CSAL present) (biosimilar ERBITUX®; [6]): 8.4 fold; Viscosity (biosimilar ERBITUX®; [6]): 18.3 ± 0.0 cP; Fold viscosity reduction (compared to no CSAL present) (biosimilar ERBITUX®; [7]): 10.3 fold; Viscosity (biosimilar ERBITUX®; [7]): 14.9 ± 0.1 cP; Fold viscosity reduction (compared to no CSAL present) (biosimilar ERBITUX®; [8]): 12.1 fold; Viscosity (biosimilar ERBITUX®; [8]): 12.7 ± 0.1 cP; Viscosity (biosimilar ERBITUX®; 222 ± 5 mg/mL mAb, pH 7.0, 0.25M agent, 25° C.): 109 ± 1 cP; Viscosity (biosimilar ERBITUX®; 225 ± 5 mg/mL mAb, pH 7.0, 0.25M agent, 20° C.): 166 ± 2 cP; Viscosity (biosimilar ERBITUX®; 225 ± 5 mg/mL mAb, pH 7.0, 0.25M agent, 25° C.): 109 ± 1 cP; Viscosity (biosimilar ERBITUX®; 225 ± 5 mg/mL mAb, pH 7.0, 0.25M agent, 30° C.): 78.4 ± 1.5 cP; Magnitude of viscosity-lowering effect (replacement of PB with CSAL) (biosimilar ERBITUX®; pH 7): 10.3 fold; Fold Reduction (biosimilar ERBITUX®; vs phosphate buffer, 222 ± 5 mg/mL mAb, pH 7.0, 0.25M agent, 25° C.): 10.4 fold; Viscosity (REMICADE® [4]; 166 ± 4 mg/mL REMICADE, 0.25M agent, pH 7.0): 27.4 ± 0.2 cP; Viscosity (REMICADE® [4]; 222 ± 6 mg/mL REMICADE, 0.25M agent, pH 7.0): 95.3 ± 1.1 cP

Which Viscosity (biosimilar AVASTIN®; 190 mg/mL mAb, excipient 0.1 M, 25° C.) does the source give for Cc1ncc(C[n+]2csc(CCO)c2C)c(N)n1 [Thiamine HCl] here?
Its Viscosity is 31.5 ± 1.7 cP.

And the Viscosity (biosimilar AVASTIN®; 225 mg/mL mAb, excipient 0.25 M, 25° C.)?
Its Viscosity is 53.3 ± 6.8 cP.

What about the “Viscosity gradient (increase in viscosity with mAb concentration)” value (SIMPONI ARIA®) of the same compound?
The value was “the viscosity gradient is reduced”.

What about the Viscosity (TYSABRI®) of the same compound?
Its Viscosity is 43.4 ± 0.7 cP.

What about the Viscosity (HERCEPTIN®; 218 mg/mL HERCEPTIN, excipient 0.1 M) of the same compound?
The Viscosity was 41.6 ± 0.5 cP.

And the Viscosity (HERCEPTIN®; 245 mg/mL HERCEPTIN, 0.10M agent)?
Its Viscosity is 41.5 ± 0.5 cP.

And the “Viscosity reduction for each mAb” value [5]?
The value was “greater than 4 fold”.

What about the Viscosity (REMICADE® [4]; 178 mg/mL REMICADE, excipient […]) of the same compound?
The Viscosity was 40.7 ± 0.3 cP.

What about the Viscosity (ENBREL®; 212 ± 7 mg/mL ENBREL) of the same compound?
The Viscosity was 141 ± 3.

What about the Viscosity (ENBREL®; 250 ± 3 mg/mL ENBREL) of the same compound?
The Viscosity was 305 ± 7.

What about the Viscosity (ENBREL®; 271 ± 0 mg/mL ENBREL) of the same compound?
The Viscosity was 626 ± 32.

What about the Viscosity reduction (ENBREL®; […] thiamine HCl vs […] PB) of the same compound?
Its Viscosity reduction is “up to 2 fold”.
